ChEMBL document CHEMBL1201862, “PubChem BioAssay data set” (2004)
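These data come from cells grown in 96-well plates and exposed to compound for 48 hours at five concentrations. GI50 is the concentration that inhibits growth by half.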 Active and inactive are the calls of the source. Cut-off read from the data, not from the text of the source: active = GI50 up to about 1.1 µM and inactive = higher.

Tests used:
Assay in all cases: growth of human tumour cells (NCI), 48 h
[1] = test system: RXF 393
[2] = test system: HT-29
[3] = test system: MOLT-4
[4] = test system: Malme-3M
[5] = test system: A549
[6] = test system: SF-295
[7] = test system: TK-10
[8] = test system: SK-OV-3
[9] = test system: RPMI-8226
[10] = test system: K562
[11] = test system: LOX IMVI
[12] = test system: IGROV-1
[13] = test system: SF-268
[14] = test system: KM12
[15] = test system: SW-620
[16] = test system: OVCAR-4
[17] = test system: U-251
[18] = test system: BT-549
[19] = test system: NCI-H226

Compound	GI50 [1]	GI50 [2]	GI50 [3]	GI50 [4]	GI50 [5]	GI50 [6]	GI50 [7]	GI50 [8]	GI50 [9]	GI50 [10]	GI50 [11]	GI50 [12]	GI50 [13]	GI50 [14]	GI50 [15]	GI50 [16]	GI50 [17]	GI50 [18]	GI50 [19]
CCC(=O)OC1=C(c2ccccc2)Sc2ccc(Cl)cc2-n2cccc21	3.24 µM (inactive)	3.78 µM (inactive)	7.71 µM (inactive)	> 10 µM (inactive)	> 10 µM (inactive)	9.62 µM (inactive)	> 10 µM (inactive)	> 10 µM (inactive)	4.45 µM (inactive)	5.75 µM (inactive)	8.65 µM (inactive)	> 10 µM (inactive)	> 10 µM (inactive)	9.04 µM (inactive)	7.67 µM (inactive)	> 10 µM (inactive)	–	–	–
Cc1ccc(C(=O)NC(C)C)cc1/N=N/N(C)C	–	> 100 µM (inactive)	–	–	> 100 µM (inactive)	> 100 µM (inactive)	> 100 µM (inactive)	–	–	–	> 100 µM (inactive)	> 100 µM (inactive)	> 100 µM (inactive)	> 100 µM (inactive)	> 100 µM (inactive)	> 100 µM (inactive)	> 100 µM (inactive)	–	–
c1ccc(-c2cccc(-c3ccccn3)n2)nc1 [TERPYRIDINE]	0.424 µM (active)	0.5 µM (active)	0.308 µM (active)	0.181 µM (active)	0.384 µM (active)	0.288 µM (active)	0.847 µM (active)	0.783 µM (active)	0.315 µM (active)	0.345 µM (active)	–	0.48 µM (active)	0.495 µM (active)	0.507 µM (active)	1.06 µM (active)	0.558 µM (active)	0.548 µM (active)	–	–
Oc1ccc(O)c(-n2cccn2)c1	38.1 µM (inactive)	65.9 µM (inactive)	21.9 µM (inactive)	> 100 µM (inactive)	> 100 µM (inactive)	95.1 µM (inactive)	32.1 µM (inactive)	> 100 µM (inactive)	25.6 µM (inactive)	24.2 µM (inactive)	52.7 µM (inactive)	> 100 µM (inactive)	85.9 µM (inactive)	> 100 µM (inactive)	29.3 µM (inactive)	> 100 µM (inactive)	> 100 µM (inactive)	–	–
Nc1ccc(-c2nc3ccc(F)cc3s2)cc1	–	38.2 µM (inactive)	> 100 µM (inactive)	51.8 µM (inactive)	28.1 µM (inactive)	25.5 µM (inactive)	26.6 µM (inactive)	–	18.6 µM (inactive)	43.7 µM (inactive)	28.7 µM (inactive)	–	37.3 µM (inactive)	25.2 µM (inactive)	51.9 µM (inactive)	–	31.4 µM (inactive)	39.4 µM (inactive)	–
N#CC(/C(=N/NC(=O)C(=O)NN)C(=O)Nc1nc([N+](=O)[O-])cs1)c1ccc(Cl)cc1 (centres undefined)	> 100 µM (inactive)	> 100 µM (inactive)	> 100 µM (inactive)	> 100 µM (inactive)	> 100 µM (inactive)	> 100 µM (inactive)	> 100 µM (inactive)	–	> 100 µM (inactive)	–	> 100 µM (inactive)	> 100 µM (inactive)	> 100 µM (inactive)	> 100 µM (inactive)	> 100 µM (inactive)	> 100 µM (inactive)	> 100 µM (inactive)	–	> 100 µM (inactive)
CN(C(=O)C1=CCC2(CC1)OCCO2)c1ccccc1OS(=O)(=O)C(F)(F)F	> 100 µM (inactive)	–	> 100 µM (inactive)	–	> 100 µM (inactive)	90.2 µM (inactive)	–	> 100 µM (inactive)	> 100 µM (inactive)	> 100 µM (inactive)	59.7 µM (inactive)	–	8.26 µM (inactive)	25.3 µM (inactive)	> 100 µM (inactive)	57.8 µM (inactive)	> 100 µM (inactive)	–	16.2 µM (inactive)
Clc1cccc(Cl)c1C1SCc2nc3ncccc3n21 (centres undefined)	> 100 µM (inactive)	> 100 µM (inactive)	61.8 µM (inactive)	55.8 µM (inactive)	> 100 µM (inactive)	> 100 µM (inactive)	> 100 µM (inactive)	> 100 µM (inactive)	80.4 µM (inactive)	49.5 µM (inactive)	> 100 µM (inactive)	> 100 µM (inactive)	> 100 µM (inactive)	52.8 µM (inactive)	> 100 µM (inactive)	52.2 µM (inactive)	> 100 µM (inactive)	–	66.8 µM (inactive)
O=C(Nc1cccc(NC(=O)c2cc(=O)c3ccccc3o2)n1)c1cc(=O)c2ccccc2o1	20.8 µM (inactive)	–	49.4 µM (inactive)	> 100 µM (inactive)	53.6 µM (inactive)	–	> 100 µM (inactive)	> 100 µM (inactive)	23.3 µM (inactive)	5.46 µM (inactive)	6.1 µM (inactive)	38.2 µM (inactive)	13.5 µM (inactive)	17.9 µM (inactive)	> 100 µM (inactive)	44.6 µM (inactive)	66.8 µM (inactive)	–	–
CC(C)c1cccc(C(=O)NCCN(C)C)c1[N+](=O)[O-]	–	> 100 µM (inactive)	> 100 µM (inactive)	> 100 µM (inactive)	80.2 µM (inactive)	> 100 µM (inactive)	> 100 µM (inactive)	> 100 µM (inactive)	–	> 100 µM (inactive)	–	> 100 µM (inactive)	> 100 µM (inactive)	> 100 µM (inactive)	> 100 µM (inactive)	–	> 100 µM (inactive)	19.5 µM (inactive)	> 100 µM (inactive)
O=C(c1ccccc1)C(c1ccccc1)C1(O)C(=O)Nc2ccccc21 (centres undefined)	> 100 µM (inactive)	> 100 µM (inactive)	> 100 µM (inactive)	> 100 µM (inactive)	> 100 µM (inactive)	> 100 µM (inactive)	> 100 µM (inactive)	> 100 µM (inactive)	> 100 µM (inactive)	> 100 µM (inactive)	> 100 µM (inactive)	> 100 µM (inactive)	> 100 µM (inactive)	–	> 100 µM (inactive)	> 100 µM (inactive)	–	–	> 100 µM (inactive)
CC(C)(C)OC(=O)n1cc(C2CN(O)C(=O)C23CCC(=O)N3Cc2ccccc2)c2ccccc21 (centres undefined)	68.4 µM (inactive)	39.9 µM (inactive)	> 100 µM (inactive)	> 100 µM (inactive)	35.3 µM (inactive)	78.5 µM (inactive)	32.8 µM (inactive)	23.9 µM (inactive)	31.6 µM (inactive)	78.7 µM (inactive)	21.2 µM (inactive)	18.8 µM (inactive)	86.3 µM (inactive)	44.1 µM (inactive)	68.7 µM (inactive)	98.9 µM (inactive)	36.9 µM (inactive)	–	24.5 µM (inactive)
CC1(C)Oc2ccc3c(=O)cc(-c4cccs4)oc3c2C1C(=O)O (centres undefined)	> 100 µM (inactive)	> 100 µM (inactive)	> 100 µM (inactive)	> 100 µM (inactive)	> 100 µM (inactive)	> 100 µM (inactive)	> 100 µM (inactive)	> 100 µM (inactive)	–	> 100 µM (inactive)	–	> 100 µM (inactive)	> 100 µM (inactive)	–	–	–	> 100 µM (inactive)	–	> 100 µM (inactive)
